# From PMC5218480 (PLoS ONE, 2017)
# System: MV-4-11 cells
# Experiment: Gene expression microarray analysis (Affymetrix PrimeView) and GSEA
# Assay type: cell-based, human
# Parameters: RFU PODN (11730768_x_at) / Fold change /veh PODN (11730768_x_at) / RFU LINC00158 (11744669_a_at) / Fold change /veh LINC00158 (11744669_a_at) / RFU DUSP10 (11751237_a_at) / Fold change /veh DUSP10 (11751237_a_at) / RFU ID3 (11757404_x_at) / Fold change /veh ID3 (11757404_x_at) / RFU PLEKHG5 (11737974_s_at) / Fold change /veh PLEKHG5 (11737974_s_at) / RFU LRRC4B (11730491_at) / Fold change /veh LRRC4B (11730491_at) / RFU GIMAP4 (11747438_a_at) / Fold change /veh GIMAP4 (11747438_a_at) / RFU KRT8 (11758183_x_at) / Fold change /veh KRT8 (11758183_x_at) / RFU CNN1 (11734310_a_at) / Fold change /veh CNN1 (11734310_a_at) / RFU VPS37D (11726825_at) / Fold change /veh VPS37D (11726825_at) / RFU C10orf10 (11716522_x_at) / Fold change /veh C10orf10 (11716522_x_at) / RFU KIR2DL2 /// KIR2DL4 /// KIR2DL5A /// KIR2DL5B /// KIR2DS1 /// KIR2DS2 /// KIR2DS3 /// KIR2DS4 /// KIR3DL3 /// KIR3DL3 /// KIR3DS1 (11738374_at) / Fold change /veh KIR2DL2 /// KIR2DL4 /// KIR2DL5A /// KIR2DL5B /// KIR2DS1 /// KIR2DS2 /// KIR2DS3 /// KIR2DS4 /// KIR3DL3 /// KIR3DL3 /// KIR3DS1 (11738374_at) / RFU C1QL1 (11718748_at) / Fold change /veh C1QL1 (11718748_at) / RFU TMPRSS4 (11747572_a_at) / Fold change /veh TMPRSS4 (11747572_a_at) / RFU HAMP (11756126_x_at) / Fold change /veh HAMP (11756126_x_at) / RFU RNFT2 (11725882_a_at) / Fold change /veh RNFT2 (11725882_a_at) / RFU NR4A2 (11747474_a_at) / Fold change /veh NR4A2 (11747474_a_at) / RFU ABCC12 (11746883_a_at) / Fold change /veh ABCC12 (11746883_a_at) / RFU TMEM136 (11760407_x_at) / Fold change /veh TMEM136 (11760407_x_at) / RFU CLDN22 /// WWC2 (11732394_at) / Fold change /veh CLDN22 /// WWC2 (11732394_at) / RFU HLA-DPB1 (11760878_x_at) / Fold change /veh HLA-DPB1 (11760878_x_at) / RFU SPINT1 (11716480_a_at) / Fold change /veh SPINT1 (11716480_a_at) / RFU GAP43 (11754022_s_at) / Fold change /veh GAP43 (11754022_s_at) / RFU A4GNT (11735810_at) / Fold change /veh A4GNT (11735810_at) / RFU PRB3 (11715151_x_at) / Fold change /veh PRB3 (11715151_x_at) / RFU TUBB4B (11761932_at) / Fold change /veh TUBB4B (11761932_at) / RFU CAPN14 (11732068_a_at) / Fold change /veh CAPN14 (11732068_a_at) / RFU TMCC2 (11721928_a_at) / Fold change /veh TMCC2 (11721928_a_at) / RFU IRGQ (11745062_a_at) / Fold change /veh IRGQ (11745062_a_at) / RFU FAM174B (11720279_a_at) / Fold change /veh FAM174B (11720279_a_at) / RFU TMPRSS4 (11748680_a_at) / Fold change /veh TMPRSS4 (11748680_a_at) / RFU FAM212B (11763350_a_at) / Fold change /veh FAM212B (11763350_a_at) / RFU PLEKHG5 (11743358_a_at) / Fold change /veh PLEKHG5 (11743358_a_at) / RFU ZSCAN30 (11745921_a_at) / Fold change /veh ZSCAN30 (11745921_a_at) / RFU CMKLR1 (11741424_a_at) / Fold change /veh CMKLR1 (11741424_a_at) / RFU LOC101060620 /// MAPK8IP1 (11723275_at) / Fold change /veh LOC101060620 /// MAPK8IP1 (11723275_at) / RFU SPTSSB (11747773_x_at) / Fold change /veh SPTSSB (11747773_x_at) / RFU PRSS12 (11739890_at) / Fold change /veh PRSS12 (11739890_at) / RFU BIN1 (11741810_x_at) / Fold change /veh BIN1 (11741810_x_at) / RFU WNT11 (11732464_a_at) / Fold change /veh WNT11 (11732464_a_at) / RFU C10orf10 (11716521_a_at) / Fold change /veh C10orf10 (11716521_a_at) / RFU C5orf56 (11738089_at) / Fold change /veh C5orf56 (11738089_at) / RFU CYB561 (11721691_x_at) / Fold change /veh CYB561 (11721691_x_at) / RFU ANKRD19P (11752326_a_at) / Fold change /veh ANKRD19P (11752326_a_at) / RFU OR2T12 /// OR2T33 /// OR2T8 (11738714_s_at) / Fold change /veh OR2T12 /// OR2T33 /// OR2T8 (11738714_s_at) / RFU VCAN (11748164_a_at) / Fold change /veh VCAN (11748164_a_at) / RFU JSRP1 (11732532_at) / Fold change /veh JSRP1 (11732532_at) / RFU KRTAP10-11 (11738290_x_at) / Fold change /veh KRTAP10-11 (11738290_x_at) / RFU MYO3A (11730013_a_at) / Fold change /veh MYO3A (11730013_a_at) / RFU EBF3 (11725865_a_at) / Fold change /veh EBF3 (11725865_a_at) / RFU CAMK2N1 (11719241_x_at) / Fold change /veh CAMK2N1 (11719241_x_at) / RFU C5orf56 (11738088_a_at) / Fold change /veh C5orf56 (11738088_a_at) / RFU OLFML3 (11715873_a_at) / Fold change /veh OLFML3 (11715873_a_at) / RFU LOC100653217 /// NTM (11731650_a_at) / Fold change /veh LOC100653217 /// NTM (11731650_a_at) / RFU MAPK11 (11762145_a_at) / Fold change /veh MAPK11 (11762145_a_at) / RFU FIZ1 (11724087_x_at) / Fold change /veh FIZ1 (11724087_x_at) / RFU OASL (11726364_x_at) / Fold change /veh OASL (11726364_x_at) / RFU SOX15 (11748057_x_at) / Fold change /veh SOX15 (11748057_x_at) / RFU CD79A (11719716_a_at) / Fold change /veh CD79A (11719716_a_at) / RFU HIST1H1D (11736915_at) / Fold change /veh HIST1H1D (11736915_at) / RFU CASKIN2 (11723855_a_at) / Fold change /veh CASKIN2 (11723855_a_at) / RFU LOC730098 (11760151_x_at) / Fold change /veh LOC730098 (11760151_x_at) / RFU OR4N2 (11742367_at) / Fold change /veh OR4N2 (11742367_at) / RFU PRRT2 (11749266_a_at) / Fold change /veh PRRT2 (11749266_a_at) / RFU SNX32 (11753110_a_at) / Fold change /veh SNX32 (11753110_a_at) / RFU CDHR5 (11726645_a_at) / Fold change /veh CDHR5 (11726645_a_at) / RFU RCAN1 (11760418_a_at) / Fold change /veh RCAN1 (11760418_a_at) / RFU FAM167A (11723789_a_at) / Fold change /veh FAM167A (11723789_a_at) / RFU FAM26E (11764081_at) / Fold change /veh FAM26E (11764081_at) / RFU ISYNA1 (11749810_s_at) / Fold change /veh ISYNA1 (11749810_s_at) / RFU ACY1 (11761880_at) / Fold change /veh ACY1 (11761880_at) / RFU 11764098_at / Fold change /veh 11764098_at / RFU SAMD14 (11745864_x_at) / Fold change /veh SAMD14 (11745864_x_at) / RFU NPB (11741838_a_at) / Fold change /veh NPB (11741838_a_at) / RFU TMPRSS6 (11731388_a_at) / Fold change /veh TMPRSS6 (11731388_a_at) / RFU KRTAP10-2 (11738614_at) / Fold change /veh KRTAP10-2 (11738614_at) / RFU ARHGAP8 /// PRR5-ARHGAP8 (11727945_x_at) / Fold change /veh ARHGAP8 /// PRR5-ARHGAP8 (11727945_x_at) / RFU KRTAP5-7 /// NADSYN1 (11734609_at) / Fold change /veh KRTAP5-7 /// NADSYN1 (11734609_at) / RFU RASL12 (11751679_a_at) / Fold change /veh RASL12 (11751679_a_at) / RFU CDKN2B (11736163_a_at) / Fold change /veh CDKN2B (11736163_a_at) / RFU PRF1 (11729649_at) / Fold change /veh PRF1 (11729649_at) / RFU, ZNF638 /// ZNF638-IT1 / Fold change vs veh, ZNF638 /// ZNF638-IT1 / RFU, PANK3 / Fold change vs veh, PANK3 / RFU, SH3YL1 / Fold change vs veh, SH3YL1 / RFU, ZEB2 / Fold change vs veh, ZEB2 / RFU, NRIP1 / Fold change vs veh, NRIP1 / RFU, PTTG1IP / Fold change vs veh, PTTG1IP / RFU, CAPN2 / Fold change vs veh, CAPN2 / RFU, MED14 / Fold change vs veh, MED14 / RFU, SNORA58 / Fold change vs veh, SNORA58 / RFU, C1orf63 / Fold change vs veh, C1orf63 / RFU, LRRFIP1 / Fold change vs veh, LRRFIP1 / RFU, NDUFAF7 / Fold change vs veh, NDUFAF7 / RFU, SLC12A2 / Fold change vs veh, SLC12A2 / RFU, IBTK / Fold change vs veh, IBTK / RFU, ESF1 / Fold change vs veh, ESF1 / Fold change vs veh, TMEM50B / RFU, TAOK1 / Fold change vs veh, TAOK1 / RFU, ACBD3 / Fold change vs veh, ACBD3 / RFU, TMA16 / Fold change vs veh, TMA16 / RFU, RWDD3 / Fold change vs veh, RWDD3 / RFU, BCAT1 / Fold change vs veh, BCAT1 / RFU, EDEM3 / Fold change vs veh, EDEM3 / RFU, TMEM33 / Fold change vs veh, TMEM33 / RFU, WDR75 / Fold change vs veh, WDR75 / RFU, AHCTF1 / Fold change vs veh, AHCTF1 / RFU, TFRC / Fold change vs veh, TFRC / RFU, ZDHHC17 / Fold change vs veh, ZDHHC17 / RFU, NOM1 / Fold change vs veh, NOM1 / RFU, ARL8B / Fold change vs veh, ARL8B / RFU, ZBTB11 / Fold change vs veh, ZBTB11 / RFU, TAMM41 / Fold change vs veh, TAMM41 / RFU, KIAA1704 /// LOC100996395 / Fold change vs veh, KIAA1704 /// LOC100996395 / RFU, ING1 / Fold change vs veh, ING1 / RFU, TRMT61B / Fold change vs veh, TRMT61B / RFU, FUBP3 / Fold change vs veh, FUBP3 / RFU, TP53 / Fold change vs veh, TP53 / RFU, TNKS2 / Fold change vs veh, TNKS2 / RFU, ZFP14 / Fold change vs veh, ZFP14 / RFU, ACTR2 / Fold change vs veh, ACTR2 / RFU, PPP3R1 / Fold change vs veh, PPP3R1 / RFU, PIK3R1 / Fold change vs veh, PIK3R1 / RFU, HNRNPA1 / Fold change vs veh, HNRNPA1 / RFU, RNF170 / Fold change vs veh, RNF170 / RFU, ZNF28 / Fold change vs veh, ZNF28 / RFU, RNGTT / Fold change vs veh, RNGTT / RFU, OGT / Fold change vs veh, OGT / RFU, BRD1 / Fold change vs veh, BRD1 / RFU, MARS / Fold change vs veh, MARS / RFU, ZNF655 / Fold change vs veh, ZNF655 / RFU, FAHD1 / Fold change vs veh, FAHD1 / RFU, BDP1 / Fold change vs veh, BDP1 / RFU, LRRCC1 / Fold change vs veh, LRRCC1 / RFU, ARID1A / Fold change vs veh, ARID1A / RFU, ZNF146 / Fold change vs veh, ZNF146 / RFU, ZNF330 / Fold change vs veh, ZNF330 / RFU, GPN3 / Fold change vs veh, GPN3 / RFU, C9orf123 / Fold change vs veh, C9orf123 / RFU, N4BP2L2 / Fold change vs veh, N4BP2L2 / RFU, ARFIP1 / Fold change vs veh, ARFIP1 / RFU, FAM179B / Fold change vs veh, FAM179B / RFU, BCL10 / Fold change vs veh, BCL10 / RFU, UHRF1BP1L / Fold change vs veh, UHRF1BP1L / RFU, BET1 / Fold change vs veh, BET1 / RFU, CNOT2 / Fold change vs veh, CNOT2 / RFU, ZNF268 / Fold change vs veh, ZNF268 / Fold change vs veh, ZNF507 / RFU, DGCR2 / Fold change vs veh, DGCR2 / RFU, WDSUB1 / Fold change vs veh, WDSUB1 / Fold change vs veh, HSP90B1 /// MIR3652 / RFU, ADSS / Fold change vs veh, ADSS / RFU, GK / Fold change vs veh, GK / RFU, ZNF148 / Fold change vs veh, ZNF148 / RFU, TAF9 / Fold change vs veh, TAF9 / RFU, SLC1A5 / Fold change vs veh, SLC1A5 / RFU, SLMO2 / Fold change vs veh, SLMO2 / RFU, ABCC4 / Fold change vs veh, ABCC4 / RFU, LOC101060439 /// RAP1B / Fold change vs veh, LOC101060439 /// RAP1B / RFU, RFX7 / Fold change vs veh, RFX7 / RFU, GTPBP10 / Fold change vs veh, GTPBP10 / RFU, CNEP1R1 / Fold change vs veh, CNEP1R1 / RFU, BIVM-ERCC5 /// ERCC5 / Fold change vs veh, BIVM-ERCC5 /// ERCC5 / RFU, ILF3 / Fold change vs veh, ILF3 / RFU 11762660_at / Fold change /veh 11762660_at / RFU VCAN (11757783_s_at) / Fold change /veh VCAN (11757783_s_at) / RFU DDX43 (11728927_at) / Fold change /veh DDX43 (11728927_at) / RFU KRT8 (11758188_x_at) / Fold change /veh KRT8 (11758188_x_at) / RFU NKD1 (11759106_at) / Fold change /veh NKD1 (11759106_at) / RFU SRD5A1 (11742802_a_at) / Fold change /veh SRD5A1 (11742802_a_at) / RFU TPSAB1 /// TPSB2 (11721975_s_at) / Fold change /veh TPSAB1 /// TPSB2 (11721975_s_at) / RFU GSTM3 (11746129_a_at) / Fold change /veh GSTM3 (11746129_a_at) / RFU IL23R (11737362_x_at) / Fold change /veh IL23R (11737362_x_at) / RFU TMEM51 (11727254_a_at) / Fold change /veh TMEM51 (11727254_a_at) / RFU PIWIL2 (11732686_x_at) / Fold change /veh PIWIL2 (11732686_x_at) / RFU ORM1 (11744905_x_at) / Fold change /veh ORM1 (11744905_x_at) / RFU CCDC152 (11743942_at) / Fold change /veh CCDC152 (11743942_at) / RFU ECM1 (11717891_a_at) / Fold change /veh ECM1 (11717891_a_at) / RFU IL23R (11748794_a_at) / Fold change /veh IL23R (11748794_a_at) / RFU TNFAIP8L3 (11732012_x_at) / Fold change /veh TNFAIP8L3 (11732012_x_at) / RFU MBOAT4 (11741988_at) / Fold change /veh MBOAT4 (11741988_at) / RFU 11764193_at / Fold change /veh 11764193_at / RFU TMEM53 (11763286_at) / Fold change /veh TMEM53 (11763286_at) / RFU MAGEB2 (11727129_at) / Fold change /veh MAGEB2 (11727129_at) / RFU TMEM200A (11744735_a_at) / Fold change /veh TMEM200A (11744735_a_at) / RFU CCDC152 (11751479_a_at) / Fold change /veh CCDC152 (11751479_a_at) / RFU FAM211A (11726209_a_at) / Fold change /veh FAM211A (11726209_a_at) / RFU RGS16 (11746705_a_at) / Fold change /veh RGS16 (11746705_a_at) / RFU VCAN (11755009_s_at) / Fold change /veh VCAN (11755009_s_at) / RFU RHOB (11743442_s_at) / Fold change /veh RHOB (11743442_s_at) / RFU RGS16 (11720943_a_at) / Fold change /veh RGS16 (11720943_a_at) / RFU RGS16 (11720944_at) / Fold change /veh RGS16 (11720944_at) / RFU, VPS4B / Fold change vs veh, VPS4B / RFU, CREB1 / Fold change vs veh, CREB1 / RFU, DNAJC13 / Fold change vs veh, DNAJC13 / RFU, GNAQ / Fold change vs veh, GNAQ / RFU, CDK5R1 / Fold change vs veh, CDK5R1 / RFU, ZRANB3 / Fold change vs veh, ZRANB3 / RFU, CUL4A / Fold change vs veh, CUL4A / RFU, CCNY / Fold change vs veh, CCNY / RFU, UFL1 / Fold change vs veh, UFL1 / RFU, COG3 / Fold change vs veh, COG3 / RFU, DIAPH2 / Fold change vs veh, DIAPH2 / RFU, SKA2 / Fold change vs veh, SKA2 / RFU, AFF3 / Fold change vs veh, AFF3 / RFU, LMF1 / Fold change vs veh, LMF1 / RFU, IPO11 / Fold change vs veh, IPO11 / RFU, DFFB / Fold change vs veh, DFFB / RFU, FOXP1 / Fold change vs veh, FOXP1 / RFU, CARD8 / Fold change vs veh, CARD8 / RFU, STRN3 / Fold change vs veh, STRN3 / RFU, ADK / Fold change vs veh, ADK / RFU, RASSF2 / Fold change vs veh, RASSF2 / RFU, WIPF1 / Fold change vs veh, WIPF1 / RFU, LARP1B / Fold change vs veh, LARP1B / RFU, RASA1 / Fold change vs veh, RASA1 / RFU, RB1 / Fold change vs veh, RB1 / RFU, PPFIA1 / Fold change vs veh, PPFIA1 / RFU, MAT2A / Fold change vs veh, MAT2A / RFU, CCT5 / Fold change vs veh, CCT5 / RFU, WDR92 / Fold change vs veh, WDR92 / RFU, CUX1 / Fold change vs veh, CUX1 / RFU, TTC7A / Fold change vs veh, TTC7A / RFU, TMEM135 / Fold change vs veh, TMEM135 / RFU, DEPTOR / Fold change vs veh, DEPTOR / RFU, CPM / Fold change vs veh, CPM / RFU, DNAJB6 / Fold change vs veh, DNAJB6 / RFU, CACNA2D3 / Fold change vs veh, CACNA2D3 / RFU, DTX4 / Fold change vs veh, DTX4 / RFU, TFCP2 / Fold change vs veh, TFCP2 / RFU, GMCL1 /// GMCL1P1 / Fold change vs veh, GMCL1 /// GMCL1P1 / RFU, AEBP2 / Fold change vs veh, AEBP2 / RFU, SNHG1 /// SNORD22 /// SNORD25 /// SNORD26 /// SNORD27 /// SNORD28 /// SNORD29 /// SNORD31 / Fold change vs veh, SNHG1 /// SNORD22 /// SNORD25 /// SNORD26 /// SNORD27 /// SNORD28 /// SNORD29 /// SNORD31 / Fold change (Aza/veh), C12orf56 (ProbeSet 11735607_a_at) / Fold change (ACY-1035/veh), C12orf56 (ProbeSet 11735607_a_at) / Fold change (Aza/veh), FGFR1OP (ProbeSet 11751329_s_at) / Fold change (ACY-1035/veh), FGFR1OP (ProbeSet 11751329_s_at) / Fold change (Aza/veh), VPS36 (ProbeSet 11739960_a_at) / Fold change (ACY-1035/veh), VPS36 (ProbeSet 11739960_a_at) / RFU SYPL1 (11715823_x_at) / Fold change /veh SYPL1 (11715823_x_at) / RFU IGFBP7 (11715501_s_at) / Fold change /veh IGFBP7 (11715501_s_at) / RFU REEP3 (11722064_at) / Fold change /veh REEP3 (11722064_at) / RFU IGLL1 (11728026_x_at) / Fold change /veh IGLL1 (11728026_x_at): dose or concentration left out as unconfirmed
# Conditions: ProbeSet 11729173_a_at; LIST D
smiles,measurement,value
Nc1ncn([C@@H]2O[C@H](CO)[C@@H](O)[C@H]2O)c(=O)n1 [azacitidine],"RFU, SKA2",326.42 RFU
